Laboratory results from EP1228058B1, “BENZOPYRANYL GUANIDINE DERIVATIVES, PROCESS FOR PREPARATION THEREOF, AND PHARMACEUTICAL COMPOSITIONS CONTAINING THEM” (Dongbu Hannong Chemical Co., Ltd., priority 1999, dated 2001).

Key:
[1] = test system: Rat aortic smooth muscle cells; assay: Inhibition of proliferation of vascular smooth muscle cells ([3H]-thymidine incorporation into DNA); type: cell-based; details: [^3H]-thymidine into DNA, angiotensin II (10^-7M) stimulated = 100, 72 hr
Description: Inhibitory effects on cell proliferation was evaluated by measurement of incorporation of [^3H]-thymidine into DNA. Rat aortic smooth muscle cells were grown in 24 well plate for 3 days to near confluence in DMEM containing 10% FBS, then DMEM containing FBS was washed out. Cells were cultured again in DMEM without serum for 48 hr to be quiescent. […] During the last 4 hours of incubation, [^3H]-thymidine (1 uCi/ml) was added. […] The samples were filtered through glass microfiber filter (GF/B. Whatmann) under vacuum. After washing the filters 3 times with 2 ml of an aqueous solution of 5% TCA, the radioactivity incorporated into DNA was counted by Liquid Scintillation Counter (Packard, TRI-CARB, 2100TR), then calculated incorporation % of [^3H]-thymidine.

rat brain homogenate = assay: Inhibition of iron-induced lipid peroxidation (MDA quantification); type: biochemical; details: 100 uM; FeCl2 400 uM, 37 °C, 30 min
Description: The rat brain was homogenized in a Krebs buffer (15 mM HEPES, 10 mM glucose, 140 mM NaCl, 3.6 mM KCl, 1.5 mM CaCl2, 1.4 mM KH2PO4, 0.7 mM MgCl2, pH 7.4) and the supernatant separated by centrifugation at 12,000 rpm for 10 min. was used for further experiments. FeCl2 was added to a final concentration of 400 uM in the brain homogenate which was then allowed to stand at 37 °C for 30 min. for the facilitation of oxidation. Each of the test compounds was added at a concentration of 100 uM and vehicle was used as a control.
Iron facilitates the oxidation of the brain homogenate to produce malondialdehyde (MDA), a lipid peroxidation product. Thus, the lipid peroxidation was determined by MDA quantification. The inhibitory effect of the test compounds against the lipid peroxidation was evaluated by calculating MDA reduction rate of the test compounds compared with that of the control group.
Typically, the MDA quantification is achieved by reacting samples with 2-thiobarbituric acid (TBA) and measuring the absorbance at 530 nm. However, this method is unsuitable to treat samples on a large scale because of a boiling step. Thus, in this experiment, N-methyl-2-phenylindole was used instead of TBA. […] Bioxytech^R LPO-586 Kit was used for MDA quantification.

[2] = Acute oral toxicity test in rats; details: rat, in vivo, single oral dose in 0.5% methyl cellulose, read-out: lethal dose (LD50) for oral administration
How it was run: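 Six-week-old SPF SD rats, two per group, received a single oral dose of 1 g/kg suspended in 0.5% methyl cellulose (10 ml/kg). Survivors at the end of observation underwent haematology, serum chemistry, necropsy and histopathology of vital organs with macroscopic lesions.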

RAW 264.7 cells = assay: Inhibition of LPS-induced NO production (Griess reagent); type: cell-based, murine; details: Mus musculus, RAW264.7, 100 uM, 24 hours
Description: Using RPMI1640 media supplemented with 10% fetal bovine serum (FBS), RAW 264.7 cells (obtained from American Type Culture Collection), a murine macrophage cell line, were cultured at 37 °C in a 5% CO2 incubator. The RAW264.7 cells were harvested and cell density was adjusted to 5x10^5/ml with a RPMI medium supplemented with 0.5% FBS and plated at 5x10^4 cells/well to 96-well plates, which were then cultured for 20 hr in a CO2 incubator. After removal of the media, the cells were pre-treated for 1 hour with fresh media containing 33 uM and 100 uM of test compounds. The test compounds were dissolved in DMSO and diluted to respective concentration in the media. In order to minimize DMSO effect on the nitric oxide formation by the RAW264.7 cells in the wells, the media were allowed to contain DMSO at a concentration of 0.1 % or less.
After completion of one hour pre-treatment, lipopolysaccharide (LPS, E. coli serotype 055:B5) was added to activate the cells, which were, then, maintained for 24 hours in a CO2 incubator. As a result of the activation of RAW264.7 cells with LPS, NO was formed. The NO released into the media was in a form of nitrite NO2^- and quantitatively measured using the Griess reagent. A control was treated only with vehicle instead of test compounds.
The inhibitory effects of the test compounds against NO production were determined as the reduction of NO quantity compared with that of the control group.

[3] = test system: ischemic heart models of beagle dogs; assay: Heart protective (anti-ischemic) activity in ischemic heart models of anesthetized beagle dogs; type: in vivo; details: total dose 2 mg/kg infused i.v. over 40 min, 90 min occlusion, 5 h reperfusion
Description: In order to determine whether the compounds of the formula 1 are protective for the ischemic hearts of larger animals, experiments determining the anti-ischemic effects of the compounds on beagle dogs were conducted as follows. The experiments on beagle dogs followed the method of Grover et al.' (G. J. Grover et al., J. Cardiovasc. Pharmacol. 25, 40 (1995)).
After being anesthetized by an intravenous injection of pentobarbital at a dose of 35 mg/kg, male beagle dogs (8-12 kg) were further infused with pentobarbital sodium at a dose of 3-4 mg/kg through the right cephalic vein throughout the experiments, so as to keep the anesthesia constant. […] The heart rate was measured by a tachometer, such as that manufactured by Gould Inc., OH, U.S.A., identified as Biotachometer. In addition, all of the changes occurring during the experiment were continuously recorded through the Gould 2000 chart recorder, manufactured by Gould Inc.
The fifth intercostal space was incised to open the thorax and the LAD was separated from its surrounding tissues. […] The LAD part upstream of the silk ligature was isolated from adjacent tissues and the blood flow was measured quantitatively. […] Using polygraph such as Grass Model 7E, the electrocardiogram was measured and read (Lead II). […]

[4] = test system: ischemic heart models of rats; assay: Heart protective (anti-ischemic) activity in ischemic heart models of anesthetized rats; type: in vivo; details: 45 min occlusion, 90 min reperfusion
Description: Male rats (350-450 g, obtained from the Experimental Animal Team of the Korea Research Institute of Chemical Technology) were anesthetized by the intraperitoneal injection of pentobarbital at a dose of 75 mg/kg. After trachetomy, the rats were rendered to respire artificially at a rate of 60/min with a stroke volume of 10 ml/kg. Cannulars were inserted into the fermoral vein and the fermoral artery and used for drug administration and blood pressure measurement, respectively.
In the ischemic myocardium damage models, the body temperature has an important influence on the results. To avoid the change in the body temperature, a body temperature measuring probe was inserted into the rectum of each rat and the body temperature was constantly kept at 37 °C with the aid of a homeothermic blanket control unit.
Afterwards, during testing, a continuous measurement was made of the mean arterial blood pressures and heart rates from the rats. For the measurement of the blood pressure, a pressure transducer, such as that manufactured by Grass Ins., MA, U.S.A., identified as Model Statham P23XL, was used. The heart rate was measured by a tachometer, such as that manufactured by Gould Inc., OH, U.S.A., identified as Biotachometer. In addition, all of the changes occurring were continuously recorded through the Gould 2000 chart recorder, manufactured by Gould Inc.
The left coronary artery was occluded according to the Selye H. method as follows. The rats underwent a left thoracotomy operation for partial opening of the chest and the right-side chest was pressurized by the middle finger of the left hand to push the heart out. Immediately after the left anterior descending coronary artery hereinafter referred to as (LAD) was carefully stitched using a suture needle with 5-0 silk ligature, the heart was then repositioned in the thoracic cavity while both ends of the ligature were situated outside. The opposite ligature ends were passed through a PE tube (PE100, 2.5 cm) and allowed to stand loose for 20 min for stabilization. Via the cannula inserted into the femoral vein, vehicles or drugs were administered into the rats which were rendered to stand for 30 min in order to sufficiently elicit the efficacies of the drugs. BMS-180448 was used as a control drug and the i.v.administration dose was 0.3 mg/kg for all test drugs of interest and the control drug.
Next, the PE tube which had the doubled strands of the ligature passed therethrough was pushed toward the heart and then, set upright by tightly pulling end regions of the ligature with a hemostatic pincette while pressing the coronary artery. The PE tube was allowed to stand for 45 min for the occlusion of the coronary artery, followed by the removal of the hemostatic pincette and then, by the reperfusion for 90 min.
After the reocclusion of the coronary artery in accordance with the above procedure, the rats were administered with 2 ml of a 1% Evans blue through an intravenous route. Subsequently, an excess of pentobarbital was intravenously injected to kill the rats, after which the heart was removed and then, deprived of the right ventricle and both atria. The left ventricle was cut horizontally to the heart apex into 5 or 6 slices which were weighed. From the surface of each slice, images were input with the aid of a Hi-scope into a computer installed with an image analyzing program (Image Pro Plus). From the images input into the computer, the area of the normal blood stream tissue region which appeared blue in a computer monitor and the area which appeared colorless were measured. The percentage of the colorless area to the total area of each slice was calculated and multiplied by the weight of each slice to determine the area at risk (AAR) of each slice. […]

rat aorta = assay: Vasodilation effects on isolated blood vessels of rats (methoxamine-constricted aortic rings); type: cell-based; details: isolated rat aorta constricted with methoxamine (3 uM); read-out: Vasodilation Activity (in Vitro, rat aorta) (IC50)
Source text: Male Sprague-Dawly rats (350-450 g, obtained from the Experimental Animal Team of the Korea Research Institute of Chemical Technology) were knocked unconscious by hitting the occipital region, sacrificed by cervical dislocation, and underwent thoracotomy. After being quickly removed, the thoracic aorta was deprived of the adipose tissue and cut into aortic rings of 3 mm width. The aorta was lightly rubbed with a modified Krebs Henseleit buffer (Physiological Salt Solution, PSS) soaked cotton club to remove the inner epithelial layer therefrom. While being suspended in an organ bath containing a physiological buffer, the vascular tissue was allowed to equilibrate under a resting tension of 2 g and then, stand for 1 hour at 37 °C for stabilization with a supply of a carbogen consisting of 95% O2-5% CO2.
Thereafter, the vascular tissue was constricted with 10^-5 M phenylephrine and washed several times with PSS and this procedure was repeated again to ensure the stable reacivity of vascular smooth muscle to repetitive constriction/dilatation.
In addition, 3x10^-6 M methoxamine was used to induce an intensive constriction in the vascular smooth muscle. When the vasoconstriction induced by the methoxamine reached and maintained a maximum, test compounds and controls were cumulatively added to the organ baths in concentrations of 1, 3, 10 and 30 uM so as to induce vasodilatation. As for the controls, they were Cromakalim and BMS-180448 (the compounds of the chemical formula 2), both known to be the first generation KATP activator with potent vasodilatation and cardioprotection effects.
Following the addition of the drugs, the change in the maximal constriction induced by methoxamine was calculated to plot a concentration-dilation response curve. Through a linear regression analysis, IC50, the drug concentration at which the vascular tissue is 50% dilated, was obtained for each drug.

Row | Structure (SMILES) | Incorporation % ([1]; 4320 min) | % Inhibition (rat brain homogenate) | LD50 [2] | inhibition at 100 µM (RAW 264.7 cells) | Anti-ischemic Activity (in vivo, dogs) (2 mg/kg/40 i.v.) min,i.v.) IZ/AAR (%) [3] | Anti-ischemic Activity (in vivo, rats) (0.3 mg/kg i.v.) IZ/AAR (%) [4] | IC50 (rat aorta) | Incorporation % [1]
1 | COC(OC)[C@]1(C)Oc2ccc([N+](=O)[O-])cc2[C@@H](NC(=NC#N)Nc2cccc(C(F)(F)F)c2)[C@@H]1O [Example 7, (2R, 3S, 4R)-N''-cyano-N-(6-nitro-3,4-dihydro-3-hydroxy-2-methyl-2-dimethoxymethyl-2H-benzopyran-4-yl)-N'-(3-trifluoromethylphenyl)guanidine] | 37.8% | 70% | > 1000 mg/kg | 88% |  |  |  | 
2 | CC1(C)Oc2ccc(C#N)cc2[C@@H](NC(=NC#N)Nc2ccc(Cl)cc2)[C@@H]1O [BMS-180448, reference compound] |  |  |  |  | 38.02% | 39.14% | 1380 nM | 
3 | COC(OC)[C@]1(C)Oc2ccc([N+](=O)[O-])cc2[C@H](NC(=NC#N)NCc2ccccc2)[C@H]1O [Example 22, (2R, 3R, 4S)-N''-cyano-N (6-nitro-3,4-dihydro-3-hydroxy-2-methyl-2-dimethoxy methyl-2H-benzopyran-4-yl)-N'-benzylguanidine] |  |  | > 1000 mg/kg |  |  |  |  | 64.0%
